Source: patent US11566229B2, “Expansion and maintenance of adult primary human hepatocytes in culture” (Wisconsin Alumni Research Foundation, priority 2018, dated 2023)

Legend:
[1] = test system: mouse adult proliferating hepatocytes; conditions: U0126 treated mouse adult proliferating hepatocytes
From the text: Total RNA was qualified with Life Technologies Qubit fluorometer (Q32857) and Agilent Bioanalyzer (G2940CA). Total RNA was used to prepare indexed cDNA libraries with the Ligation Mediated Sequencing (LM-Seq) protocol (Hou, Z et al. 2015). Final indexed cDNA libraries were pooled with forty-four uniquely indexed LM-Seq cDNA libraries per lane and sequenced on an Illumina HiSeq 3000.
We derived SHPCs from adult mouse liver and treated them with the MAPK inhibitor U0126.

[2] = test system: ESC-hepatocyte derived SHPCs; conditions: SHPC medium, co-cultured with MEFs and U0126; QPCR, FIG. 6
From the text: We treated the ESC-hepatocyte derived SHPCs in SHPC medium and co-cultured with MEFs and U0126. We FAC sorted the albumin reporter expressing hepatocytes and performed QPCR.

Structure (SMILES): N#CC(=C(/N)Sc1ccccc1N)/C(C#N)=C(\N)Sc1ccccc1N [U0126]
- CYP1A2 gene expression (RNA-Seq) ([1]; vehicle 1): 78
- RARA gene expression (RNA-Seq) ([1]; vehicle 1): 5
- AHR gene expression (RNA-Seq) ([1]; vehicle 4): 11
- UGT1A1 gene expression (RNA-Seq) ([1]; vehicle 6): 54
- CYP3A16 (human fetal CYP3A4) gene expression (RNA-Seq) ([1]; vehicle 15): 2
- RXRA gene expression (RNA-Seq) ([1]; vehicle 28): 40
- UGT1A6A gene expression (RNA-Seq) ([1]; vehicle 28): 189
- CYP1A1 gene expression (RNA-Seq) ([1]; vehicle 36): 1447
- APOH gene expression (RNA-Seq) ([1]; vehicle 128): 245
- HNF4A gene expression (RNA-Seq) ([1]; vehicle 254): 340
- APOB gene expression (RNA-Seq) ([1]; vehicle 332): 567
- CYP3A11 (human adult CYP3A4) gene expression (RNA-Seq) ([1]; vehicle 496): 563
- Albumin gene expression (RNA-Seq) ([1]; vehicle 6523): 11379
- increase in CYP3A expression [2]: 3 fold
- increase in albumin expression [2]: 2 fold
